Like-named read-outs stand apart in the source and are kept apart here.
Assay: Suppression test of Experimental Example 1: masking and harmonizing effect in a cup, four expert panelists;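 as to harmonizing: score 1 means in harmony 0 indefinite and −1 not in harmony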
Conditions: for Masking: scale 0-3
Protocol: In the present invention, the selection of the above component (I), component (II) and component (III) was carried out as follows. That is, one of the pseudo body odor compositions mentioned above and a target fragrance component were mixed and left at room temperature for 30 minutes. Thereafter, evaluations of the masking and harmonizing effects to the acid odor were carried out by four expert panelists.
After 30 minutes, a hole of about 1 cm in diameter was formed in the aluminum foil and the investigations of masking effect and the harmonizing effect were carried out according to following evaluation criteria by four expert panelists.
3: Excellent in the masking.
2: Substantially excellent in the masking.
1: Slightly sensible of the body odor (sweat odor and armpit odor).
0: Sensible of the body odor (sweat odor and armpit odor) (insufficient in the masking)

[1] = 200 μl pseudo body odor composition of Example 4 and 10 μl perfume on filter papers in sealed about 500 ml cup, after 30 minutes, four expert panelists
[2] = 200 μl pseudo body odor composition of Example 4 and 10 μl perfume on filter papers in sealed about 500 ml cup, after 30 minutes, four expert panelists, scale −1 to 1

Molecule | Masking [1] | Harmonizing [2] | Harmonizing
C/C=C/C(=O)C1=C(C)CCCC1(C)C [β-Damascone] | 2 | 1 | 
CC(C)=CCCC1=CCC(C)(C=O)CC1 (centres unmarked) [Homomyracaldehyde, 1-methyl-4-(4-methyl-3-pentenyl)-3-cyclohexen carboxy aldehyde] | 1 | −1 | 
O=C(OCc1ccccc1)c1ccccc1O [Benzyl salicylate] | 1 | −1 | 
O=C/C=C/c1ccccc1 [Cinnamic aldehyde] | 2 | 0 | 
Methylionone soap | 2 | 1 | 
Cc1ccc(C(C)C)c(O)c1 [Thymol] | 1 | −1 | 
CC(C)=CCCC(C)CC=O (centres unmarked) [Citronellal] | 3 | 1 | 
C=C(C)C1CC=C(C)C(=O)C1 (centres unmarked) [Example 1-Carvone, 1-Carvone] | 3 | 1 | 
CC(C=O)Cc1ccc(C(C)(C)C)cc1 (stereo not drawn) [Lilial, p-tert-butyl-α-methyl hydrocinnamic aldehyde] |  | 0 | 
CCCCCCCCCCCC=O [Dodecanal] | 1.5 points | −1 | 
CC(C)CC1CC(C)(O)CCO1 (centres unmarked) [Dihydroroseoxide, 4-methyl-2-(2-methylpropyl)tetrahydro-2H-4-pyranol] | 1.5 points | 0 | 
CCOC(=O)C1C(C)CCCC1(C)C (centres unmarked) [Thesaron, ethyl 2,2,6-trimethylcyclohexane carboxylate] | 2 | 0 | 
CC(C)=CC1CC(C)CCO1 (centres unmarked) [Rose oxide] | 3 | 1 | 
C=CCOC(=O)COC1CCCCC1 [Cyclogalbanate, allyl cyclohexyl oxyacetate] | 2.5 points | 1 | 
CC1(C)CCCC2(C)C1CCC1(C)OCCC12 (stereo not drawn) [Ambroxan, Decahydro-3α, 6,6,9α-tetramethyldodecanhydronaphto[2,1-b]furan] | 2 | 1 | 
CC12CCC(CC1=O)C2(C)C (centres unmarked) [Camphor] | 3 | 1 | 
O=Cc1ccc2c(c1)OCO2 [Heliotropine] | 1.5 points | 0 | 
O=C(Cc1ccccc1)OCCc1ccccc1 [Phenylethyl phenyl acetate] | 2 | 0 | 
CC(=O)CCC=C(C)C [Methyl heptenone] | 3 | 1 | 
CC(=O)c1c(C)cc(C(C)(C)C)cc1C [4-tert-Butyl-2,6-dimethylacetophenone] | 2 | 0 | 
CCC(=CCC1CC=C(C)C1(C)C)CO (centres unmarked) [Levosandol, 2-ethyl-4-(2,2,3-trimethyl-3-cyclopentene-1-yl)-2-butene-1-ol] | 2.5 points | 1 | 
CCOC(=O)CC1(C)OCCO1 [Fraistone, ethyl (2-methyl-[1,3]dioxolane-2-yl) acetate] | 1 | −1 | 
CC(C)=CCCC(C)C=O (centres unmarked) [2,6-Dimethyl-5-heptenal] | 3 | 1 | 
C=CC(C)(O)CCC=C(C)CC (mixture of isomers) [Ethyl linalool] | 1.5 points | 0 | 
CCCC(C)C(=O)OCC (centres unmarked) [Ethyl-2-methyl valerate] | 3 | 1 | 
CCC(O)COC1CCCCC1C(C)(C)C (centres unmarked) [Amber core, 1-(2-tert-butylcyclohexyloxy)butane-2-ol] | 0.5 points | −1 | 
CCCCCC1C(=O)CCC1CC(=O)OC (centres unmarked) [Methyl dihydrojasmonate] | 2 | 1 | 
CCCCCCC1CCC(=O)O1 (centres unmarked) [γ-Decalactone] | 2.5 points | 1 | 

Molecule | Masking [1] | Harmonizing [2] | Harmonizing
O=C1CCCCCCCCOCCCCCCO1 [Oxalide, 10-oxa-16-hexadecanolide] | 0 | −1 | 
CC(C)=CCCC1=CCC(C=O)CC1 (centres unmarked) [Myracaldehyde, 4-(4-methyl-3-pentenyl)-3-cyclohexene-1-carbaldehyde] | 1.5 points | 0 | 
CC/C=C\CC1=C(C)CCC1=O [cis-Jasmone] | 1 | −1 | 
CCCCCC1CCC(=O)O1 (centres unmarked) [γ-Nonalactone] | 2.5 points | 1 | 
CC(C)(O)Cc1ccccc1 [α,α-Dimethylphenylethyl, α,α-dimethyl phenylethyl alcohol] | 0.5 points | −1 | 
C=CCCC(=O)C1=CCCC(C)(C)C1 [α-Dynascone, 1-(5,5-dimethyl-cyclohexene-1-yl)-4-pentene-1-one] | 3 | 1 | 
c1ccc(Oc2ccccc2)cc1 [Diphenyl oxide] | 1.5 points | 0 | 
CCCCCCCCCC=O [Decanal] | 1 | −1 | 
C=CCCCCCCCCO [Example 9-Decen-1-ol, 9-Decen-1-ol] | 1.5 points | 0 | 
CCCCCCCCC=O [Nonanal] | 1.5 points | −1 | 
CCC(=O)OC1CC2CC1C1CC=CC21 (centres unmarked) [Cyclaprop, tricyclodecenyl propionate] | 1 | −1 | 
COc1ccc(C)cc1 [p-Cresyl methyl ether] | 3 | 1 | 
C=CC(C)(CCC=C(C)C)OC(C)=O (centres unmarked) [Linalyl acetate] | 1 | −1 | 
O=C1CCCC=CCCCCCCCCCC1 [Ambretone, 5-cyclohexadecene-l-one] | 1.5 points | 0 | 
COc1ccc2ccccc2c1 [β-Naphthol methyl ether] |  |  | 1
C=CCOC(=O)COCCC(C)C [Allyl amyl glycolate] | 3 | 1 | 
COC(=O)c1c(C)cc(O)c(C)c1O [Evernyl, methyl dihydroxydimethyl benzoate] | 0 | −1 | 
O=c1ccc2ccccc2o1 [Coumarin] |  | 1 | 
CC(C=O)Cc1ccc2c(c1)OCO2 (stereo not drawn) [Helional, α-methyl-3,4-methylene dioxyhydrocinnamic aldehyde] | 1 | 0 | 
C=CC(C)(O)CCC=C(C)C (centres unmarked) [Linalool] | 1 | 0 | 
CC(C)=CCCC(C)=CC=O [Citral] | 3 | 1 | 
isocamphyl cyclohexanol [Santalex] | 0.5 points | −1 | 
CCC=C(C)C(O)CCCCC (centres unmarked) [4-Methyl-3-decene-5-ol] | 2.5 points | 0 | 
COC(=O)c1ccccc1N [Methyl anthranilate] | 2.5 points | 1 | 
C=CCc1ccc(O)c(OC)c1 [Eugenol] | 1.5 points | 0 | 
C/C=C/C(=O)C1=C(C)C=CCC1(C)C [Damascenone] | 2 | 1 | 
CC(C)=CCCC(C)CCO (centres unmarked) [Citronellol] | 2.5 points | 1 | 
